{"source": "patent US12653776B2", "about": "“Methods of treatment of cancer by continuous infusion of coenzyme Q10” (priority 2013, dated 2026)", "key": {"[1]": {"system": "MIAPaCa-2 human pancreatic tumor cells", "experiment": "Pancreatic cancer (MIAPaCa-2) mouse model, survival", "assay_type": "in vivo, NOD scid gamma (NSG) mice", "protocol": "For example, FIG. 7 is a schematic describing a study investigating three different dosing regimens for coenzyme Q10 in an animal model of pancreatic cancer. The effect of coenzyme Q10 alone or in combination with gemcitabine on total survival in a preclinical mouse model of pancreatic cancer was evaluated.\nEqual numbers of MIAPaCa-2 human pancreatic tumor cells were suspended in […]® and injected into NOD scid gamma (NSG) mice. The NSG mouse model is devoid of innate and adaptive immune systems and provides a biological environment suitable for the growth of human tumors in vivo. The MIAPaCa-2 is a well established human derived pancreatic carcinoma cell line that can be used to establish pancreatic tumors in immunosuppressed animals. MIAPaca-2 tumors were allowed to develop for, on average, at least 3 weeks in mice prior to initiation of treatment. Animals with palpable tumors were randomized into treatment groups.\nThe three treatment regimens utilized for the study included once/daily, twice/daily or thrice/daily dosing of coenzyme Q10 at either 50 mg/kg body weight (Regimen 1 & Regimen 2) or 50 mg/kg or 75 mg/kg body weight (Regimen 3) alone or in combination with a fixed dose of gemcitabine (150) mg/kg body weight). For example, mice treated twice/daily received two 50 mg/kg doses of coenzyme Q10, for a total of 100 mg/kg/day, and mice treated thrice daily received three 50 mg/kg doses of coenzyme Q10 for a total of 150 mg/kg/day. Each group of animals received chemotherapeutic treatment for a minimum of three cycles and was maintained to determine outcomes.\nNext, a continuous infusion protocol was implemented to determine the effect of constant coenzyme Q10 administration on survival in an animal model of pancreatic cancer. An infusion pump was surgically installed in the animals to facilitate continuous infusion of coenzyme Q10 at a dose of 25 mg/kg, 50 mg/kg or 100 mg/kg body weight per day. Treatment was continued throughout the entire duration of the study."}, "[2]": {"experiment": "First-in-human Phase 1 study (CTL0510), 4-hour IV infusion 3 times weekly: safety", "protocol": "The first-in-human Phase 1 study with coenzyme Q10 nanosuspension (40 mg/ml) was conducted in 50 patients with advanced solid tumors. The objectives were to assess the safety, maximum tolerated dose, PK and PD of coenzyme Q10, specifically a 4% coenzyme Q10 nanosuspension formulation (as described in WO 2011/112900, the entire contents of which are expressly incorporated herein by reference), administered as a 4-hour IV infusion 3 times weekly in 28-day cycles. Nine dose levels were explored ranting from 5.62 to 139 mg/kg. Plasma concentration profiles and PK parameters were determined from blood samples collected pre-dose and at intervals to 48 hours post-dose."}, "[3]": {"system": "AML or ALL", "experiment": "Phase 1a/b study, 18 day continuous infusion in relapsed/refractory AML or ALL", "conditions": "at the end of the study", "procedure": "This study is conducted in the inpatient setting for the first 10 patients enrolled on monotherapy to closely monitor the coagulation profile, gain experience and collect safety data during the first full cycle of therapy (21 days) and at least 30 days of post-dosing follow-up Platelet count and coagulation parameters are obtained every day in the inpatient setting. […] Treatment may continue in either the inpatient and/or outpatient setting for subsequent patients enrolled on study. Platelet count and coagulation are monitored at least 3 times/week in the outpatient setting and daily in the inpatient setting.\nEach cycle of monotherapy is 21 days in length. […] Each cycle of combination therapy is 28 days in length. […] Patients who experience a DLT during cycle 1 of monotherapy or cycle 1 of combination therapy are discontinued.\nOn Day 1 of each cycle (i.e., Monday) the dose consists of an accelerated rate of infusion of 25% of the total dose volume over 1 hour with the remaining 75% of the dose volume infused over 23 hours. Subsequent daily doses (Days 2 through 18) are infused uniformly over 24 hours (no accelerated rate in the first hour). […] The principal investigator will consult with the Medical Monitor and the Chair of the DSMB to determine the appropriate dose level for each patient."}}}
{"substance": "coenzyme Q10", "values": [{"measurement": "survival", "setting": "[1]; coenzyme Q10 alone, once/twice/thrice daily 50 mg/kg (or 75 mg/kg), vs untreated or chemotherapy alone", "result": "increase in survival"}, {"measurement": "survival rates", "setting": "[1]; coenzyme Q10 in combination with gemcitabine 150 mg/kg", "result": "higher survival rates than coenzyme Q10 alone or gemcitabine alone"}, {"measurement": "survival rates", "setting": "[1]; continuous infusion", "result": "higher survival rates than those treated with continuous infusion of 50 mg/kg or 25 mg/kg"}, {"measurement": "survival rate", "setting": "[1]; continuous infusion 25 mg/kg body weight per day vs 50 mg/kg three times per day", "result": "higher survival rate"}, {"measurement": "animal survival", "setting": "[1]; increasing 50 mg/kg doses from once/daily to three times per day", "result": "significant improvement in animal survival"}, {"measurement": "serious adverse events (bleeding) resulting in the patient's death due to hemothorax", "setting": "[2]; 104.3 mg/kg dose level", "result": "One"}, {"measurement": "AST increased, laboratory AE", "setting": "[2]; in vivo", "result": 8, "unit": "%"}, {"measurement": "CTCAE grade of the majority of adverse events", "setting": "[2]; in vivo", "result": "grade 1 or 2"}, {"measurement": "PTT prolonged, laboratory AE", "setting": "[2]; in vivo", "result": 80, "unit": "%"}, {"measurement": "SAEs reported as possibly related to coenzyme Q10", "setting": "[2]; in vivo", "result": "Two"}, {"measurement": "alkaline phosphatase increased, laboratory AE", "setting": "[2]; in vivo", "result": 2, "unit": "%"}, {"measurement": "arthritis, AE related to coenzyme Q10", "setting": "[2]; in vivo", "result": 4, "unit": "%"}, {"measurement": "chills, AE related to coenzyme Q10", "setting": "[2]; in vivo", "result": 6, "unit": "%"}, {"measurement": "dose limiting toxicities (DLTs)", "setting": "[2]; in vivo", "result": "no dose limiting toxicities (DLTs) were identified"}, {"measurement": "fatigue, AE related to coenzyme Q10", "setting": "[2]; in vivo", "result": 24, "unit": "%"}, {"measurement": "fever, AE related to coenzyme Q10", "setting": "[2]; in vivo", "result": 8, "unit": "%"}, {"measurement": "headache, AE related to coenzyme Q10", "setting": "[2]; in vivo", "result": 10, "unit": "%"}, {"measurement": "increased INR considered related to coenzyme Q10", "setting": "[2]; in vivo", "result": 68, "unit": "%"}, {"measurement": "nausea, AE related to coenzyme Q10", "setting": "[2]; in vivo", "result": 8, "unit": "%"}, {"measurement": "patients who died due to disease progression or intercurrent illness during the study", "setting": "[2]; in vivo", "result": "Twenty"}, {"measurement": "patients who discontinued treatment due to AEs reported as unrelated to treatment", "setting": "[2]; in vivo", "result": "Four"}, {"measurement": "patients who experienced abnormal INR values", "setting": "[2]; in vivo", "result": 38, "unit": "patients"}, {"measurement": "patients with clinically significant increased INR", "setting": "[2]; in vivo", "result": 14, "unit": "patients"}, {"measurement": "platelet count decreased, laboratory AE", "setting": "[2]; in vivo", "result": 14, "unit": "%"}, {"measurement": "vital signs or physical examination findings", "setting": "[2]; in vivo", "result": "No clinically significant changes"}, {"measurement": "outcomes by standard criteria", "setting": "[3]; e.g., decreased tumor burden", "result": "clinically relevant outcomes"}, {"measurement": "adverse events with increased infusion duration", "setting": "[3]; vs four hour infusion at higher rate", "result": "decrease adverse events"}]}
